Here are results for five molecules from paper PMC3392958, “Assay Format as a Critical Success Factor for Identification of Novel Inhibitor Chemotypes of Tissue-Nonspecific Alkaline Phosphatase from High-Throughput Screening” (Molecules, 2010).

For data set [1], the target named is T1, TNAP (Homo sapiens, UniProt P05186).
T1 construct: made in house; host or cells: COS-1 cells, transient expression; dialyzed serum-free conditioned medium
T1 sequence (P05186 18-501 limits assumed): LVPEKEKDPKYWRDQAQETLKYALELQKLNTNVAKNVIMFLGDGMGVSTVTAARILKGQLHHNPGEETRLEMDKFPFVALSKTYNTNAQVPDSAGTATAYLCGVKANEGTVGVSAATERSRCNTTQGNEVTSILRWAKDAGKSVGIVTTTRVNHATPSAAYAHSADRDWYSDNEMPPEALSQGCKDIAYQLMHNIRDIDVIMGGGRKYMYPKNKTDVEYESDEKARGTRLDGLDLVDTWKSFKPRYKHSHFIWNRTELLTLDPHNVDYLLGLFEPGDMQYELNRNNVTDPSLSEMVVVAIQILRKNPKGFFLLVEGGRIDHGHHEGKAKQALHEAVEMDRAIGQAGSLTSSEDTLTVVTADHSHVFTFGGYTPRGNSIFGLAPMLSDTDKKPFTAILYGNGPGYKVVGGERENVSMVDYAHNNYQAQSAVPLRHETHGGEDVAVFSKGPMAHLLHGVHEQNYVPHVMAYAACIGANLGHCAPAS
On the set-up: method as in PMID 17638573. To be noted: existing inhibitors of TNAP; read-out: TNAP- Color Ki; cited from earlier work.

For a further data set, the target named is GAPDH (Homo sapiens, UniProt P04406). Nature of the data set: Glyceraldehyde-3-phosphate dehydrogenase (GAPDH) assay. It is filed as biochemical. The protocol:
(§1) An additional sub-micromolar IAP assay using p-nitrophenol phosphate (pNPP) as substrate was developed at the CPCCG and was utilized for hit confirmation. Lead compounds were tested in a panel of assays consisting of: (1) TNAP luminescent assay (substrate: CDP-star); (2) TNAP colorimetric assay (substrate: pNPP); (3) PLAP luminescent assay (substrate: CDP-star); (4) IAP luminescent assay (substrate: CDP-star); (5) IAP colorimetric assay (substrate: pNPP); (6) solubility and (7) glyceraldehyde-3-phosphate dehydrogenase (GAPDH) assay. The latter two assays are designed to identify compounds that are likely to interfere with the assay components and would appear as non-specific inhibitors. Our approach to exploring the SAR for the IAP inhibitor series is shown graphically in Figure 8.
The National Institutes of Health (NIH) Molecular Libraries Small Molecule Repository (MLSMR, http://www.mli.nih.gov/mlsmr) supplied the compound library. The MLSMR, funded by the NIH, is responsible for the selection of small molecules for HTS screening, their purchase and quality control (QC) analysis, library maintenance, and distribution within the NIH Molecular Libraries Screening Center Network (MLSCN, http://www.mli.nih.gov/mlscn). Both MLSMR and MLSCN are parts of the Molecular Libraries Initiatives (MLI, http://nihroadmap.nih.gov/molecularlibraries) under the NIH Roadmap Initiatives (www.nihroadmap.nih.gov). MLSMR compounds are acquired from commercial and in part from academic and government sources and are selected based on the following criteria: samples are available for resupply in 10-mg quantity, are at least 90% pure, have acceptable physicochemical properties, and contain no functional groups or moieties that are known to generate artifacts in HTS (http://mlsmr.glpg.com/). Compounds are selected to represent diversified chemical space with clusters of closely related analogs around them to aid in the HTS-based structure-activity relationship (SAR) analysis. […]

The target in data set [2] is T1, TNAP. Nature of the data set: TNAP luminescent assay (CDP-star substrate, 100 mM DEA). It is filed as biochemical. The protocol:
(§2) Development of the novel luminescent TNAP assay using CDP-star substrate and detailed protocol of its application for HTS is described in more detail elsewhere. […] Briefly, the assay was 50 μM CDP-star substrate in assay buffer containing 100 mM DEA-HCl (pH 9.8), 1 mM MgCl2, and 20 μM ZnCl2. The luminescence signal was measured after a 30-min incubation at room temperature on an EnVision plate reader (PerkinElmer, Waltham, MA). […] Detailed protocols can be found in the respective AIDs, however, the final buffer conditions were 100 mM DEA, pH 9.8, 1.0 mM MgCl2, 0.02 mM ZnCl2 for both PLAP and IAP.

The next data set has as its target T2, human PLAP (Homo sapiens, UniProt P05187).
T2 construct: made in house; host or cells: COS-1 cells, transient expression; dialyzed serum-free conditioned medium
Nature of the data set: PLAP luminescent assay (CDP-star). It is filed as biochemical. How it is done: (§3) Selectivity of Primary Actives Against other Phosphatases: To assess the selectivity of compounds across the alkaline phosphatase family, luminescent assays were developed for human PLAP and human IAP with the same CDP-Star reagent.
as §2

In data set [3] the target is T3, IAP (Homo sapiens, UniProt P09923).
T3 construct: made in house; host or cells: COS-1 cells, transient expression; dialyzed serum-free conditioned medium
T3 sequence (P09923 20-503 limits assumed): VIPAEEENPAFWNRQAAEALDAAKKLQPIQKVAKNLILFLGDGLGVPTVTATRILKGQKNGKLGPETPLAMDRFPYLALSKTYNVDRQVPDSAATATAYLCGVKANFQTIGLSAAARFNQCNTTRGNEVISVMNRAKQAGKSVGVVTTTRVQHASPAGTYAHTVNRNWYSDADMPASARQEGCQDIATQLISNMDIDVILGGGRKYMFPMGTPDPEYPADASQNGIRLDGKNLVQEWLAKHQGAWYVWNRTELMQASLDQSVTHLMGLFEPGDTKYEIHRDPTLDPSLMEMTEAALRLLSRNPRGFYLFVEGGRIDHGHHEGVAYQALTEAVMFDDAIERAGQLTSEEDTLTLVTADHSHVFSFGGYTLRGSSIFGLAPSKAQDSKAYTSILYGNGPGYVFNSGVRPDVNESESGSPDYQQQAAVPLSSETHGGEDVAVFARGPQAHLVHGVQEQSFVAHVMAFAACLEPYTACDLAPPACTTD
Nature of the data set: IAP luminescent assay (CDP-star). In kind it is biochemical. How it is done: as §3, §2

Data set [4] in a line: Solubility in aqueous solutions. It is filed as physicochemical. To be noted: read-out: concentrations at which compound is soluble. How it is done: as §1
The National Institutes of Health (NIH) Molecular Libraries Small Molecule Repository (MLSMR, http://www.mli.nih.gov/mlsmr) supplied the compound library. […] MLSMR compounds are acquired from commercial and in part from academic and government sources and are selected based on the following criteria: samples are available for resupply in 10-mg quantity, are at least 90% pure, have acceptable physicochemical properties, and contain no functional groups or moieties that are known to generate artifacts in HTS (http://mlsmr.glpg.com/). […]

Data set [5] is described as follows: Stability in rat liver microsomes (RLM). To be noted: 20-minute incubation. In kind it is in vitro ADME. Background: Microsomes from liver hold many membrane-bound enzymes, among them those of drug oxidation.
Data set [6] deals with primary calvarial osteoblast cultures. Nature of the data set: Calcification in primary calvarial osteoblast cultures. To be noted: 30 µM, osteoblasts of WT mice cultured 19 days. In kind it is cell-based, mouse. How it is done: Figure 5 Suppression of calcification by CID-2931238 in primary calvarial osteoblast cultures. Osteoblasts from calvaria bones of WT mice were cultured for 19 days. Media supplemented with 50 µg/mL ascorbic acid and 10 mM β-glycerophosphate were renewed every second or third day (total seven medium changes). The concentration of each compound was maintained at 30 µM. RAU = relative absorbance units.

Details of data set [7]: method as in PubChem. To be noted: assays deposited in PubChem; ref PubChem; cited from earlier work.
Another data set concerns CYP2C19. Set-up: method as in PubChem. To be noted: @ 5 µM; ref PubChem; cited from earlier work.
Data set [8] concerns the target T3, IAP. Nature of the data set: IAP colorimetric assay (pNPP). In kind it is biochemical. To be noted: unit not given in Table 8; n=7; read-out: IAP-Color. The protocol: as §1
The target in data set [9] is T1, TNAP. The data set can be described thus: TNAP colorimetric assay (pNPP substrate, OD405, 1M DEA). To be noted: unit not given in Table 8; n=6; read-out: TNAP-Color. It is filed as biochemical. How it is done: The colorimetric TNAP assay was performed as previously described with slight modifications.
A further data set deals with CYP2C9. Set-up: method as in PubChem. To be noted: @ 5 µM; ref PubChem; cited from earlier work.

pIC50, pKi: −log10 of the molar value. Read-outs that look alike come from different tables or passages of the source. Bounds are passed on as bounds.

Sequence of GAPDH (P04406 whole entry, species assumed): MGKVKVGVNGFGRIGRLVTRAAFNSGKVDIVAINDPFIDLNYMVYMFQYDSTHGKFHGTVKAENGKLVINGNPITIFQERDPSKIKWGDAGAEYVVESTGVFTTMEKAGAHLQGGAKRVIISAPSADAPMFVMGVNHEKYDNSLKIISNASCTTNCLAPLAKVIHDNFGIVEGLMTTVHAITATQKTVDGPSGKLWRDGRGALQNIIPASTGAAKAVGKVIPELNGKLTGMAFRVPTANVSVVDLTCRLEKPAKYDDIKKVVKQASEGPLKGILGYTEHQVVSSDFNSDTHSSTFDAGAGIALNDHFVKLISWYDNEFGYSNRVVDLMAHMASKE
T2 sequence (P05187 23-506 limits assumed): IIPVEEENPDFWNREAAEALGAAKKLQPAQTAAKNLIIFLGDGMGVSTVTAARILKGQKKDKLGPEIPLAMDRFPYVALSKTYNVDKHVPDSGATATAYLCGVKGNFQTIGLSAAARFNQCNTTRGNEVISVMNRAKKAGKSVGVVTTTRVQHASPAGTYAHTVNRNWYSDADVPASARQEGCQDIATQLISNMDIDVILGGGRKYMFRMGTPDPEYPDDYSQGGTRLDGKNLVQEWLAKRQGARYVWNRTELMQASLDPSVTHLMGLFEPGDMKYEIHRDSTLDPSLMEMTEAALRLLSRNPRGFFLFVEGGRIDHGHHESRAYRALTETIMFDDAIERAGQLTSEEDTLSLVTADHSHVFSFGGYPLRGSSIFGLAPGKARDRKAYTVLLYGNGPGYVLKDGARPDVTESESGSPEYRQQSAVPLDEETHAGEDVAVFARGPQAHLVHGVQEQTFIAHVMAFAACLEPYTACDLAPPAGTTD

Regarding `O=C(c1ccccc1)C(Sc1nnc[nH]1)c1ccccc1` (stereo not shown) [MLS-5361418], on TNAP [1], the pKi is 5.25.
Take `O=C(NCCO)c1cc(-c2ccc(Cl)c(Cl)c2Cl)n[nH]1` [MLS-0146291]: the “inhibition of GAPDH” value on GAPDH (at or below 10 µM) is recorded as “did not show any inhibition”. Moreover, the “selectivity index against the closest counter-targets (PLAP, GAPDH)” value at TNAP [2] is > 2,000 fold. The pIC50 at TNAP [2] (TNAP, read-out: IC50 (Figure 6, pyrazole series optimization)) was 8.30; on TNAP [2] (read-out: TNAP IC50, luminescent assay), 8.28. Moreover, on human PLAP (at or below 10 µM), the “inhibition of PLAP” value was “did not show any inhibition”.
`COc1ccc(OC)c(S(=O)(=O)Nc2cnc3ccccc3c2)c1` [MLS-0038949]: the “inhibition of IAP” value on IAP [3] (at or below 100 µM) is “did not show any inhibition”. The pIC50 on IAP [3] (read-out: Selectivity Panel IC50 IAP) and on human PLAP (read-out: Selectivity Panel IC50 PLAP) was under 4.00 each time. In addition, the solubility in data set [4] is under 25 µM. Moreover, the “compound remaining in rat liver microsomes” value in data set [5] is listed as “virtually all-of-the compound remained”. The “effect on GAPDH activity” value at GAPDH is on record as “no effect”. In addition, in [6], the inhibition of mineralization result is “completely inhibited mineralization”. The cytotoxicity result in data set [7] is listed as “no cytotoxicity”. Also, the “inhibition of PLAP” value on human PLAP (at or below 100 µM) is listed as “did not show any inhibition”.
With `O=C1C2CC=CCC2C(=O)N1c1nc(-c2ccccc2)n[nH]1` (stereo not shown) [CID-2946732], the “mode of IAP inhibition versus the CDP-star substrate” value at IAP [3] is “non-competitive”. Further, the “potency relative to all other existing small-molecule inhibitors of IAP” value at IAP [3] is on record as > 6,500 fold. Moreover, the “selectivity for IAP over TNAP” value at IAP [3] came to 7 fold. Besides, the pIC50 at IAP [3] (phtalimide triazole series, read-out: IC50 IAP-Lumi) was 6.92; on IAP [3] (unit not printed in Table 8 ([…]), n=7, read-out: IAP-Lumi), 6.91; at IAP [8], 5.86; at TNAP [9] it was under 4.00; at TNAP [2] (phtalimide triazole series, read-out: IC50 TNAP- Lumi) it was 6.10; on TNAP [2] (unit not given in Table 8, n=7, read-out: TNAP-Lumi), 6.10. For the same molecule, on human PLAP (unit not given in Table 8, n=3, read-out: PLAP-Lumi), the pIC50 is 5.32. Besides, the solubility in data set [4] was under 25 µM. Further, the “effect on GAPDH activity” value at GAPDH is “no effect”. Moreover, the 2C19 with CYP2C19 is given as 79.6% I @. Moreover, the 2C9 in the data set with CYP2C9 is listed as 92.5% I @. Besides, in [7], the cytotoxicity entry is on record as “no cytotoxicity”.
As to `Cn1cnnc1Sc1nc(Nc2ccccc2)nc(Nc2ccccc2)n1` [MLS-5804079], the pKi on TNAP [1] was 5.19.

For orientation: pKi means the negative decadic logarithm of the Ki, by convention in mol/L.
